Like-named read-outs stand apart in the source and are kept apart here.
Legend:
[1] = tested on: human monocytic cell line U937; test: Human U937 cellular necroptosis assay (TNFalpha + z-VAD-FMK, Cell Titer-Glo viability); type: cell-based; settings: U937 cells, 25 ng/mL human TNFalpha + 25 μM z-VAD-FMK, read-out: hU937 Avg IC50
Summary of the method: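 Cells resuspended in phenol red-free RPMI with 10% FBS, stimulated with 25 ng/mL human TNFalpha plus 25 μM z-VAD-FMK, then given serially diluted compound for 22 h at 37° C, 5% CO2. Viability by Cell Titer-Glo 2.0 luminescence; IC50 from four-parameter logistic fit, averaged across runs.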

[2] = target: RIPK1 (Homo sapiens (Human), UniProt Q13546); test: ADP-Glo kinase assay (RIPK1 activity, conversion of ATP to ADP); type: biochemical; settings: 5 nM RIPK1, 50 μM ATP, 6 h reaction; read-out: RIPK1 Enzyme Avg IC50
Summary of the method: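 ADP-Glo luminescence of ATP-to-ADP conversion by 5 nM RIPK1 with 50 μM ATP (final), 6 h reaction after 10 min compound preincubation at rt. Buffer was 50 mM HEPES pH 7.5, 30 mM MgCl2, 0.05% BSA, 0.02% CHAPS. IC50 from four-parameter logistic fit.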

Chain of RIPK1 (Q13546 1-327): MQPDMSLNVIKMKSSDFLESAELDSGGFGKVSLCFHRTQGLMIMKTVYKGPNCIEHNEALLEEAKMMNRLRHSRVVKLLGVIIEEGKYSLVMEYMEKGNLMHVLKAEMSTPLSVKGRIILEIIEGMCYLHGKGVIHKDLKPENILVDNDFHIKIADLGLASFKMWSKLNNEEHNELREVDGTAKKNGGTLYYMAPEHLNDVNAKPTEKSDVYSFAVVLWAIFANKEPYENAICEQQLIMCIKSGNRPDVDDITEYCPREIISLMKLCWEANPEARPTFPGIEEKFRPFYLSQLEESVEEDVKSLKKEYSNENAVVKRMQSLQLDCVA

Molecule	IC50 ([1]; Homo sapiens, U-937, 22 h)	IC50 [2]	IC50 ([1]; 22 h)
N#Cc1ccc2c(cnn2CC23CC(C(=O)NCc4cc(F)cc(F)c4)(C2)C3)c1 [Example 261, 3-((5-cyano-1H-indazol-1-yl)methyl)-N-(3,5-difluoro-benzyl)bicyclo[1.1.1]pentane-1-carboxamide]	9470 nM	4520 nM	
N#Cc1ccc(OCC23CC(C(=O)N4N=CCC4c4cc(F)cc(F)c4)(C2)C3)nc1 (centres unmarked) [Example 320, 6-((3-(5-(3,5-difluorophenyl)-4,5-dihydro-1H-pyrazole-1-carbonyl)bicyclo[1.1.1]pentan-1-yl)methoxy)nicotinonitrile]	30 nM	19 nM	
O=C(N1N=CCC1c1cc(F)cc(F)c1)C12CC(COc3ncc(F)cc3F)(C1)C2 (centres unmarked) [Example 321, (5-(3,5-difluorophenyl)-4,5-dihydro-1H-pyrazol-1-yl)(3-(((3,5-difluoropyridin-2-yl)-oxy)methyl)bicyclo[1.1.1]-pentan-1-yl)methanone]	45 nM	18 nM	
O=C(N1N=CCC1c1cc(F)cc(F)c1)C12CC(COc3ncc(F)cn3)(C1)C2 (centres unmarked) [Example 325, (5-(3,5-difluorophenyl)-4,5-dihydro-1H-pyrazol-1-yl)(3-(((5-fluoropyrimidin-2-yl)-oxy)methyl)bicyclo[1.1.1]-pentan-1-yl)methanone]	193 nM	21 nM	
COc1ccnc(OCC23CC(C(=O)N4N=CCC4c4cc(F)cc(F)c4)(C2)C3)n1 (centres unmarked) [Example 327, (5-(3,5-difluorophenyl)-4,5-dihydro-1H-pyrazol-1-yl)(3-(((4-methoxypyrimidin-2-yl)oxy)methyl)bicyclo[1.1.1]-pentan-1-yl)methanone]	381 nM	75 nM	
O=C(N1N=CCC1c1cc(F)cc(F)c1)C12CC(COc3cc(F)cnc3F)(C1)C2 (centres unmarked) [Example 328, (5-(3,5-difluorophenyl)-4,5-dihydro-1H-pyrazol-1-yl)(3-(((2,5-difluoropyridin-3-yl)-oxy)methyl)bicyclo[1.1.1]-pentan-1-yl)methanone]	409 nM	116 nM	
O=C(N1N=CCC1c1cc(F)cc(F)c1)C12CC(COc3ccc(Br)cc3Cl)(C1)C2 (centres unmarked) [Example 330, (3-((4-bromo-2-chloro-phenoxy)methyl)bicyclo-[1.1.1]pentan-1-yl)(5-(3,5-difluorophenyl)-4,5-dihydro-1H-pyrazol-1-yl)methanone]	21 nM	11 nM	
O=C(N1N=CCC1c1cc(F)cc(F)c1)C12CC(COc3ccc(Br)cc3F)(C1)C2 (centres unmarked) [Example 331, (3-((4-bromo-2-fluoro-phenoxy)methyl)bicyclo-[1.1.1]pentan-1-yl)(5-(3,5-difluorophenyl)-4,5-dihydro-1H-pyrazol-1-yl)methanone]	28 nM	13 nM	
O=C(N1N=CCC1c1cc(F)cc(F)c1)C12CC(COc3cccc(F)c3Cl)(C1)C2 (centres unmarked) [Example 332, (3-((2-chloro-3-fluoro-phenoxy)methyl)bicyclo-[1.1.1]pentan-1-yl)(5-(3,5-difluorophenyl)-4,5-dihydro-1H-pyrazol-1-yl)methanone]	33 nM	19 nM	
N#Cc1ccc(OCC23CC(C(=O)N4N=CCC4c4cc(F)cc(F)c4)(C2)C3)c(F)c1 (centres unmarked) [Example 333, 4-((3-(5-(3,5-difluorophenyl)-4,5-dihydro-1H-pyrazole-1-carbonyl)bicyclo[1.1.1]pentan-1-yl)methoxy)-3-fluoro-benzonitrile]	36 nM	16 nM	
O=C(N1N=CCC1c1cc(F)cc(F)c1)C12CC(COc3ccc(F)cc3Cl)(C1)C2 (centres unmarked) [Example 334, (3-((2-chloro-4-fluoro-phenoxy)methyl)bicyclo-[1.1.1]pentan-1-yl)(5-(3,5-difluorophenyl)-4,5-dihydro-1H-pyrazol-1-yl)methanone]	45 nM	18 nM	
O=C(N1N=CCC1c1cc(F)cc(F)c1)C12CC(COc3ccc(F)cc3F)(C1)C2 (centres unmarked) [Example 335, (3-((2,4-difluorophenoxy)-methyl)bicyclo[1.1.1]pentan-1-yl)(5-(3,5-difluorophenyl)-4,5-dihydro-1H-pyrazol-1-yl)methanone]	46 nM	18 nM	
O=C(N1N=CCC1c1cc(F)cc(F)c1)C12CC(COc3ccccc3Cl)(C1)C2 (centres unmarked) [Example 336, (3-((2-chlorophenoxy)methyl)-bicyclo[1.1.1]pentan-1-yl)(5-(3,5-difluorophenyl)-4,5-dihydro-1H-pyrazol-1-yl)-methanone]	55 nM	31 nM	
Cc1ccccc1OCC12CC(C(=O)N3N=CCC3c3cc(F)cc(F)c3)(C1)C2 (centres unmarked) [Example 337, (5-(3,5-difluorophenyl)-4,5-dihydro-1H-pyrazol-1-yl)(3-((o-tolyloxy)methyl)bicyclo-[1.1.1]pentan-1-yl)methanone]	140 nM	24 nM	
O=C(N1N=CCC1c1cc(F)cc(F)c1)C12CC(COc3cc(F)ccc3F)(C1)C2 (centres unmarked) [Example 338, (3-((2,5-difluorophenoxy)-methyl)bicyclo[1.1.1]pentan-1-yl)(5-(3,5-difluorophenyl)-4,5-dihydro-1H-pyrazol-1-yl)methanone]	165 nM	26 nM	
(5-(3,5-difluorophenyl)-4,5-dihydro-1H-pyrazol-1-yl)(3-((6-fluoro-1H-benzo[d]-imidazol-1-yl)methyl)-bicyclo[1.1.1]pentan-1-yl)methanone and (5-(3,5-difluorophenyl)-4,5-dihydro-1H-pyrazol-1-yl)(3-((5-fluoro-1H-benzo[d]-imidazol-1-yl)methyl)-bicyclo[1.1.1]pentan-1-yl)methanone [Example 192]		80 nM	197 nM

From patent US20250214942A1, “INHIBITORS OF RECEPTOR INTERACTING PROTEIN KINASE I FOR THE TREATMENT OF DISEASE” (Board of Regents, The University of Texas System, priority 2019, published 2025)
